In patent publication US20250326753A1, “DUAL CXCR4-BTK INHIBITORS” (X4 Pharmaceuticals, Inc., priority 2022, published 2025):
Like-named read-outs stand apart in the source and are kept apart here.

Key:
CXCR4 [1] = molecular target: T1, CXCR4 (Homo sapiens, UniProt P61073); assay: Chemokine (CXCL12-AF647) binding inhibition assay, Jurkat cells expressing CXCR4; conditions: CXCL12-AF647 25 ng/ml, read-out: IC50 CXCL-12 binding Jurkat
Procedure: Jurkat cells expressing CXCR4 were washed once with assay buffer (Hanks' balanced salt solution with 20 mM HEPES buffer and 0.2% bovine serum albumin, pH 7.4) and then incubated for 15 min at room temperature with the test compounds diluted in assay buffer at dose-dependent concentrations. Subsequently, CXCL12-AF647 (25 ng/ml) was added to the compound-incubated cells. The cells were incubated for 30 min at room temperature. Thereafter, the cells were washed twice in assay buffer, fixed in 1% paraformaldehyde in PBS, and analyzed on the FL4 channel of a FACSCalibur flow cytometer equipped with a 635-nm red diode laser (Becton Dickinson, San Jose, CA, USA).
The percentages of inhibition of CXCL12-AF647 binding were calculated according to the formula: [1−((MFI−MFINC)/(MFIPC−MFINC))]×100 where MFI is the mean fluorescence intensity of the cells incubated with CXCL 12-AF647 in the presence of the inhibitor, MFINC is the mean fluorescence intensity measured in the negative control (i.e., autofluorescence of unlabeled cells), and MFIPC is the mean fluorescence intensity of the positive control (i.e., cells exposed to CXCL12-AF647 alone).

BTK = BTK (Homo sapiens, UniProt Q06187); assay: BTK Kinase Enzyme System with ADP-Glo Kinase Assay; type: biochemical; parameters: Recombinant full-length human BTK was expressed by baculovirus in Sf9 insect cells; His (N); purchased Promega V9071; host or cells: Sf9 insect cells (baculovirus); conditions: 50 μM ATP
Procedure: Inhibition of BTK activity was evaluated using the BTK Kinase Enzyme System in combination with the ADP-Glo™ Kinase Assay Kit (V9071, Promega), according to manufacturer's instructions. Luminescence was detected on a PerkinElmer EnVision Multimode Plate Reader.
Recombinant full-length human BTK was expressed by baculovirus in Sf9 insect cells using an N-terminal His tag, MW ˜78 kDa. Substrate solution contained Poly (4:1 Glu, Tyr) Peptide Substrate. BTK Kinase Buffer consisted of: 40 mM Tris, pH 7.5; 20 mM MgCl2; 0.1 mg/ml BSA; 2 mM MnCl2; 50 μM DTT. ADP-Glo™ Reagents were thawed at ambient temperature; components of BTK Enzyme System, ADP and ATP were thawed on ice. Final assay conditions used 3 ng BTK, 50 μM ATP, and 0.2 mg/mL substrate. Compounds were tested at 11 dose points in duplicates, in 3-fold dilution with top concentration at 10 μM.
Assay performance was evaluated according to the reference compound Staurosporine, which was within 3-5 fold of published results and between different tests, with a Z′ value larger than 0.5, where applicable.

[2] = molecular target: T2, BTK (Bruton tyrosine kinase) (Homo sapiens, UniProt Q06187); assay: BTK screening assay (33PanQinase Activity Assay, radiometric); type: biochemical; conditions: Inhibition of BTK, radiometric 33PanQinase Activity Assay, 3 μM ATP, 10 concentrations in singlicate, top 10 μM; read-out: 33PanQinase ® Radiometric IC50
T2 construct: GST or His (the text leaves open which); purchased Reaction Biology Europe GmbH Lot 012,11; host or cells: Sf9 insect cells or E. coli (not resolved)
Procedure: Inhibition of BTK activity was evaluated using a radiometric protein kinase assay (33PanQinase® Activity Assay) to measure the activity of BTK (Bruton tyrosine kinase).
Kinase assays were performed in 96-well ScintiPlates™ from Perkin Elmer (Boston, MA, USA) in a 50 μL reaction volume. The reaction cocktail was pipetted in four steps in the following order: 10 μL of non-radioactive ATP solution (in H2O); 25 μL of assay buffer/[γ-^33P]-ATP mixture; 5 μL of compound test sample in 10% DMSO; 10 μL of enzyme/substrate mixture.
BTK kinase was expressed in Sf9 insect cells or in E. coli as recombinant GST-fusion proteins or His-tagged proteins, either as full-length or enzymatically active fragments from human cDNAs, and purified by either GSH-affinity chromatography or immobilized metal. Purity was examined by SDS-PAGE/Coomassie staining, and identity confirmed by mass spectroscopy.
The reaction cocktails were incubated at 30° C. for 60 minutes. The reaction was stopped with 50 μL of 2% (v/v) H3PO4, plates were aspirated and washed two times with 200 μL 0.9% (w/v) NaCl. Incorporation of ^33Pi (counting of “cpm”) was determined with a microplate scintillation counter (Microbeta, Wallac).
The median value of the counts in wells containing assay buffer without enzyme, and without test compound was defined as “low control.” This value reflects unspecific binding of radioactivity to the plate in the absence of a protein kinase but in the presence of the substrate. The median value of the counts in wells containing assay buffer without test compound was defined as the “high control,” i.e. full activity in the absence of any inhibitor. The difference between high and low control was taken as 100% activity. Residual activity (in %) was calculated using the following formula: Res. Activity (%)=100×[(cpm of compound-low control)/(high control-low control)].
The fitting method used was a least-squares fit.

CXCR4 [3] = molecular target: T1, CXCR4; assay: Intracellular CXCL-12-induced calcium mobilization assay (FLIPR), U87.CXCR4 cells; type: cell-based; parameters: expressed in transfected cells; host or cells: U87 (U87.CXCR4); conditions: CXCL-12 25-50 ng/ml, read-out: IC50 CXCL-12 Ca2+ flux U87.CXCR4+
Procedure: Intracellular calcium mobilization induced by chemokines or chemokine-derived peptides were evaluated using a calcium responsive fluorescent probe and a FLIPR system. The CXCR-4 transfected U87 cell line (U87.CXCR4) cells were seeded in gelatine-coated black-wall 96-well plates at 20,000 cells per well and incubated for 12 hours. Cells were then loaded with the fluorescent calcium probe Fluo-2 acetoxymethyl at 4 μM final concentration in assay buffer (Hanks' balanced salt solution with 20 mM HEPES buffer and 0.2% bovine serum albumin, pH 7.4) for 45 min at 37° C. The intracellular calcium mobilization induced by the CXCL-12 (25-50 ng/ml) was then measured at 37° C. by monitoring the fluorescence as a function of time in all the wells simultaneously using a fluorometric imaging plate reader (FLIPR Tetra, Molecular Devices).

Ramos cell line = Ramos cell line viability assay (CellTiter-Glo, 72 hr); type: cell-based; conditions: Homo sapiens
Procedure: Inhibition of non-Hodgkin lymphoma B-cell proliferation by compounds of the present invention was evaluated in a Ramos cell line. Ramos is a B lymphocyte cell line that was derived from a patient with Burkitt's Lymphoma.
Cell viability was analyzed with the CellTiter-Glo® Luminescent Cell Viability Assay Kit (G7572, Promega), according to the manufacturer's instruction. Cells were seeded into a 96-well/384-well plate and then incubated in 5% CO2 at 37° C. overnight. Compounds were added to the cells, with 9-10 dose points in duplicates in 3-fold dilution from a top concentration of 30 μM, and incubated in 5% CO2 at 37° C. for 72 hr. The 96-well/384-well plate was equilibrated at room temperature for 30 min. 50 μl/25 μl of CellTiter-Glo® Reagent was added to each well and mixed for 2 min on an orbital shaker to induce cell lysis. The 96-well/384-well plate was incubated at room temperature for 10 min to stabilize luminescent signal. Luminescence was detected on a PerkinElmer EnVision Multimode Plate Reader as relative luminescence units (RLU).

[4] = class, read-out: Ramos viability IC50

T1 sequence (P61073 whole entry): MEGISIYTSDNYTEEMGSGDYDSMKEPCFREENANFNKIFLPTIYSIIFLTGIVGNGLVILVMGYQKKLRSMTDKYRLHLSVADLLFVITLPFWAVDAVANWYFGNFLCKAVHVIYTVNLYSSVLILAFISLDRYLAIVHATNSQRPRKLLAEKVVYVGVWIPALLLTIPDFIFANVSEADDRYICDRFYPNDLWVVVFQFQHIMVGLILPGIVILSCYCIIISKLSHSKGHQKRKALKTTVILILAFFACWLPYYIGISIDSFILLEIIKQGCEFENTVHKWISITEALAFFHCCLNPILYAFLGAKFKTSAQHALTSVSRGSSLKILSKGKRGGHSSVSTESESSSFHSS
Chain of BTK (Q06187 whole entry): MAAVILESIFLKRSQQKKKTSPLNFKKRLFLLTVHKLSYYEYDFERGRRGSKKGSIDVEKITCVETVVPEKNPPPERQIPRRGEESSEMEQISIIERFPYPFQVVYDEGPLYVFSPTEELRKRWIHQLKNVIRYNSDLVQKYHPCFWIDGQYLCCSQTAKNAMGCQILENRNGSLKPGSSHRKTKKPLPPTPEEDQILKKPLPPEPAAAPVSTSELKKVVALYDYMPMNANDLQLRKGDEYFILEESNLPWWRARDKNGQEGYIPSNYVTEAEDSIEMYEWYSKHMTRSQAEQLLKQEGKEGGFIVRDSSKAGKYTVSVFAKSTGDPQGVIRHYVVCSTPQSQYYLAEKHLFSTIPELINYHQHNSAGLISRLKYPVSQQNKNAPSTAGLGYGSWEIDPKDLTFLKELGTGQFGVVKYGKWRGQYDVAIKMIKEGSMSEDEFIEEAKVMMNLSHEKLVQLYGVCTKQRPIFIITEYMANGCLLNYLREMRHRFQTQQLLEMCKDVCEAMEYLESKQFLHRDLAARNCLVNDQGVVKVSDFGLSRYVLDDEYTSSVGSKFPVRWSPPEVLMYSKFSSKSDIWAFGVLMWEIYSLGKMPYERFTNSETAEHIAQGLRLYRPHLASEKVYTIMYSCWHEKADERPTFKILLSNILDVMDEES
T2 sequence (Q06187 whole entry): as above

| SMILES | IC50 (CXCR4 [1]) [nM] | IC50 (BTK) [nM] | IC50 [2] [nM] | IC50 (CXCR4 [3]) [nM] | IC50 (Ramos cell line; [4]) [nM] | IC50 (Ramos cell line; read-out: IC50) [nM] |
| --- | --- | --- | --- | --- | --- | --- |
| Cc1cccnc1[C@H]1CCC[C@@H](c2ncccc2C)N1CCCCNC(=O)c1cc2c(-c3ccc(CNC(=O)c4ccc(C(C)(C)C)cc4)cc3)ncnc2[nH]1 [Compound I-1] | 1 to 100 | 100 to 1000 | 100 to 1000 | > 2500 | – | – |
| Cc1cccnc1[C@H]1CCC[C@@H](c2ncccc2C)N1CCCCN(C)C(=O)c1cc2c(-c3ccc(CNC(=O)c4ccc(C(C)(C)C)cc4)cc3)ncnc2[nH]1 [Compound I-2] | 1 to 100 | 1000 to 2500 | 1000 to 2500 | > 2500 | – | – |
| Cc1cc(-c2ncnc3[nH]c(C(=O)NCCN4[C@@H](c5ncccc5C)CCC[C@H]4c4ncccc4C)cc23)ccc1CNC(=O)c1ccc(C(C)(C)C)cc1 [Compound I-3] | 100 to 1000 | 1 to 100 | 1 to 100 | > 2500 | – | – |
| Cc1cc(-c2ncnc3[nH]c(C(=O)NCCCN4[C@@H](c5ncccc5C)CCC[C@H]4c4ncccc4C)cc23)ccc1CNC(=O)c1ccc(C(C)(C)C)cc1 [Compound I-4] | 1 to 100 | 1 to 100 | 1 to 100 | > 2500 | – | – |
| Cc1cc(-c2ncnc3[nH]c(C(=O)N(C)CCCN4[C@@H](c5ncccc5C)CCC[C@H]4c4ncccc4C)cc23)ccc1CNC(=O)c1ccc(C(C)(C)C)cc1 [Compound I-5] | 100 to 1000 | 100 to 1000 | 100 to 1000 | > 2500 | – | – |
| Cc1cc(-c2ncnc3[nH]c(C(=O)NCCCCN4[C@@H](c5ncccc5C)CCC[C@H]4c4ncccc4C)cc23)ccc1CNC(=O)c1ccc(C(C)(C)C)cc1 [Compound I-6] | 1 to 100 | 1 to 100 | 1 to 100 | > 2500 | 1500 to 2000 | 1550 |
| Cc1cccnc1[C@H]1CCC[C@@H](c2ncccc2C)N1CCN1CCN(C(=O)c2ccc(-c3cc4c(-c5cccc(NC(=O)c6ccc(C(C)(C)C)cc6)c5C)ncnc4[nH]3)cc2)CC1 [Compound I-7] | 100 to 1000 | 1 to 100 | 1 to 100 | > 2500 | 1500 to 2000 | 1620 |
| Cc1cccnc1[C@H]1CCC[C@@H](c2ncccc2C)N1CCNC1CN(C(=O)c2ccc(-c3cc4c(-c5cccc(NC(=O)c6ccc(C(C)(C)C)cc6)c5C)ncnc4[nH]3)cc2)C1 [Compound I-8] | 1 to 100 | 1 to 100 | 1 to 100 | 100 to 1000 | ≥ 4000 | 11100 |
| Cc1cc(-c2ccnc(Nc3cnn(CCCN4[C@@H](c5ncccc5C)CCC[C@H]4c4ncccc4C)c3)n2)ccc1CNC(=O)N1CC(OC(C)C)C1 [Compound I-12, N-(4-(2-(1-(3-((2S,6R)-2,6-bis(3-methylpyridin-2-yl)piperidin-1-yl)propyl)-1H-pyrazol-4-ylamino)pyrimidin-4-yl)-2-methylbenzyl)-3-isopropoxyazetidine-1-carboxamide] | 1 to 100 | 1 to 100 | 1 to 100 | 1000 to 2500 | 2000 to 4000 | 2780 |

Next, values leading:

| IC50 (CXCR4 [1]) [nM] | IC50 (BTK) [nM] | IC50 [2] [nM] | IC50 (CXCR4 [3]) [nM] | IC50 (Ramos cell line; [4]) [nM] | IC50 (Ramos cell line; read-out: IC50) [nM] | SMILES |
| --- | --- | --- | --- | --- | --- | --- |
| 1 to 100 | 100 to 1000 | 100 to 1000 | 1 to 100 | 2000 to 4000 | 3540 | Cc1cccnc1[C@H]1CCC[C@@H](c2ncccc2C)N1CCNC1CN(C(=O)c2ccc(-c3cc4c(-c5cccc(NC(=O)c6ccccc6)c5C)ncnc4[nH]3)cc2)C1 [Compound I-9] |
| 100 to 1000 | 100 to 1000 | 100 to 1000 | > 2500 | – | – | Cc1cccnc1[C@H]1CCC[C@@H](c2ncccc2C)N1CCCCNC[C@@H]1CC[C@@H](Nc2ncnc3[nH]cc(C(=O)c4ccc(Oc5ccccc5)cc4Cl)c23)CO1 [Compound I-13, (4-((3R,6S)-6-((4-((2R,6S)-2,6-bis(3-methylpyridin-2-yl)piperidin-1-yl)butylamino)methyl)tetrahydro-2H-pyran-3-ylamino)-7H-pyrrolo[2,3-d]pyrimidin-5-yl) (2-chloro-4-phenoxyphenyl) methanone] |
| > 2500 | 1 to 100 | 1 to 100 | > 2500 | – | – | Cc1cccnc1[C@H]1CCC[C@@H](c2ncccc2C)N1CCCCOC(=O)[C@@H]1CC[C@@H](Nc2ncnc3[nH]cc(C(=O)c4ccc(Oc5ccccc5)cc4Cl)c23)CO1 [Compound I-14] |
| 1000 to 2500 | 1000 to 2500 | 1000 to 2500 | > 2500 | – | – | Cc1cccnc1[C@H]1CCC[C@@H](c2ncccc2C)N1CCNC[C@@H]1CC[C@@H](Nc2ncnc3[nH]cc(C(=O)c4ccc(Oc5ccccc5)cc4Cl)c23)CO1 [Compound I-15, (4-((3R,6S)-6-((2-((2R,6S)-2,6-bis(3-methylpyridin-2-yl)piperidin-1-yl)ethylamino)methyl)tetrahydro-2H-pyran-3-ylamino)-7H-pyrrolo[2,3-d]pyrimidin-5-yl) (2-chloro-4-phenoxyphenyl) methanone] |
| 1000 to 2500 | 1 to 100 | 1 to 100 | > 2500 | – | – | Cc1cccnc1[C@H]1CCC[C@@H](c2ncccc2C)N1CCNC(=O)[C@@H]1CC[C@@H](Nc2ncnc3[nH]cc(C(=O)c4ccc(Oc5ccccc5)cc4Cl)c23)CO1 [Compound I-17] |
